Assays:
[1] = molecular target: T1, PanZ (Escherichia coli, UniProt P37613); experiment: isothermal titration calorimetry; type: binding
T1 construct: His-tagged PanZ from pCA24N(-GFP)-his-panZ, expressed in E. coli delta-panD delta-panZ (DE3); Ni-NTA and Superdex 75; monomer; copurifies partly with CoA
T1 sequence (P37613 1-127): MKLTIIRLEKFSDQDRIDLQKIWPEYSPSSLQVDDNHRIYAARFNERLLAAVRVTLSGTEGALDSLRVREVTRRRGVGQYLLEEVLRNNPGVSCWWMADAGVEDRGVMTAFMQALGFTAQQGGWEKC
Description: isothermal titration calorimetry on PanZ

[2] = molecular target: T1, PanZ; experiment: isothermal titration calorimetry; type: binding; conditions: pH 7.4, 25 °C; sample contains copurified CoA

SMILES | Kd [1] [nM] | isothermal titration calorimetry [2]
CC(C)(COP(=O)(O)OP(=O)(O)OC[C@H]1O[C@@H](n2cnc3c(N)ncnc32)[C@H](O)[C@@H]1OP(=O)(O)O)[C@@H](O)C(=O)NCCC(=O)NCCS [CoA] | 1950 ± 160 | 
CC(=O)SCCNC(=O)CCNC(=O)[C@H](O)C(C)(C)COP(=O)(O)OP(=O)(O)OC[C@H]1O[C@@H](n2cnc3c(N)ncnc32)[C@H](O)[C@@H]1OP(=O)(O)O [acetyl CoA] |  | titration of CoA and AcCoA into PanZ showed binding

Reference: PMC3473359, “Formation of a heterooctameric complex between aspartate α-decarboxylase and its cognate activating factor, PanZ, is CoA-dependent” (Biochemical and Biophysical Research Communications, 2012)
